Laboratory results: paper PMC8111499, “GW117: A novel serotonin (5‐HT2C) receptor antagonist and melatonin (MT1/MT2) receptor agonist with potential antidepressant‐like activity in rodents” (CNS Neuroscience & Therapeutics, 2021)

Experiments:
[1] = molecular target: T1, MT1 receptor (Homo sapiens, UniProt P48039); test: [35S]‐GTPγS binding assay, MT1; assay type: biochemical
T1 construct: purchased Perkin‐Elmer ES‐620
Description: This experiment was mentioned earlier. ^27 In short, HEK293 cell membrane stably expressing human 5‐HT2C receptors or rat hippocampal tissue membrane or MT1/MT2 receptors was re‐suspended in buffer (50 mmol/L Tris, 100 mmol/L NaCl, 5 mmol/L MgCl2·6H2O, 0.1 mmol/L EDTA‐Na2·6H2O, 0.2 mmol/L EGTA, pH 7.4) and incubated with the test compound (100 μM GDP, 0.2 nM [^35S]‐GTP, or [^3H]PIP) for 60 min at 28℃. At the end of the experiment, Whatman GF/C filters pre‐soaked with distilled water were used for rapid filtration followed by washing with 5 ml of ice‐cold Tris buffer. Determination of non‐specific binding in the presence of GTPγS and radioactivity was measured by liquid scintillation counting. Calculation of the concentration produces a half‐maximal effect (EC50) and the maximal increase above the baseline value.

[2] = molecular target: T1, MT1 receptor; test: MT1 receptor binding assay ([3H]‐melatonin competition); settings: mean ± SEM, three independent experiments
Description: (§1) The stably transfected 5‐HT2C receptor HEK293 cell line was prepared using a nucleus‐cytoplasm‐membrane preparation kit (Applagin Technologies Inc.). Briefly, cells were harvested at 4°C, 110 00 × g and centrifugation for 5 min. Homogenize pellets in the assay buffer (50 mM Tris‐HCl buffer containing 120 mM NaCl and 5 mM KCl, pH 7.4) and then centrifuged twice at 4°C, 36,000 × g for 15 min. Finally, pellets were re‐suspended in assay buffer and stored it at −80°C until it is used for in vitro experiments.
(§2) Receptor membrane protein, MT1 or MT2 (10 μl), was added to all pipes. Non‐specific binding was determined by the presence of unlabeled 10 µM melatonin and pre‐reacted for 30 min. In test tubes, 30 μl of test drugs (MT1: concentration, 10^−4–10^−10 M; MT2: concentration, 10^−4–10^−11 M) was added. Additionally, 40 μl [^3H]‐melatonin was added to all tubes. The volume in all reaction tubes was made up to 300 μl with Tris‐HCl buffer (50 mM, pH 7.4). Reactions were performed at 25°C for 1 h. The mixture was then spotted onto a type 49 glass fiber filter paper, suction filtered under vacuum, rinsed three times with 2 ml ice‐cold Tris‐HCl buffer (50 mM, pH 7.4), and dried by suction. […] Finally, 1 ml of scintillation fluid was added and then the radioactive intensity measured by liquid scintillation counting.

[3] = molecular target: T2, MT2 receptor (Homo sapiens, UniProt P49286); test: MT2 receptor binding assay ([3H]‐melatonin competition); settings: mean ± SEM, three independent experiments
T2 construct: purchased Perkin‐Elmer ES‐621
T2 sequence (P49286 1-362): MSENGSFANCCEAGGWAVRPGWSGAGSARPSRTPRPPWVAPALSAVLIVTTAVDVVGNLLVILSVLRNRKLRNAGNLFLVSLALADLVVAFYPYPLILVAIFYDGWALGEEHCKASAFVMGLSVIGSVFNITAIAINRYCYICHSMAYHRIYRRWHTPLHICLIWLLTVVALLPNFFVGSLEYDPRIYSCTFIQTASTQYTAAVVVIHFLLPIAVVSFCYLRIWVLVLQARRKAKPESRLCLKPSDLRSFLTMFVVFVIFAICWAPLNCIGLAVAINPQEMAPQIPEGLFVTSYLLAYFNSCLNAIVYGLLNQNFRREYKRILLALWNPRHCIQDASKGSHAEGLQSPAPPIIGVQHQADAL
Description: as §1, §2

[4] = test system: mice; test: Tail suspension test in mice; assay type: in vivo, ICR mice
Description: The tail suspension test (TST) was conducted as described earlier. ^28 , ^29 Eighty naive mice were randomly divided into eight treatment groups (n = 10/group). All mice received a single dose of the drug (p.o.). After 60 min of gavage administration, mice were suspended from the top of the apparatus (25 × 25 × 35 cm) using tape about 1 cm from the tail tip. The duration of immobility was recorded in the last 4 min for a total of 6 min. When mice are passively suspended immobile, they are judged to be stationary.

[5] = test system: mice; test: Learned helplessness paradigm in mice; assay type: in vivo, ICR mice; settings: sub‐chronic, fourth day after inescapable shock training, vs stress
Description: For 4 consecutive days, mice were putted into the shuttle box device (40 × 10 × 13 cm), the device was splited into two compartments, and mice could free access. In the IS group, each mouse received 360 inescapable shocks (current intensity 0.30 mA, duration 2 s, 3‐13 s variable interval, about 1 h) over four consecutive training days. Animals in the NIS group underwent the same handling without receiving the foot shocks. 10 trials were conducted on mice to screen helpless, each of which includes conditioned stimulation period (3‐s lamp on), non‐conditioned stimulation period (3‐s lamp +shock), and interval period (without any stimulus, 25 s). […] The EF values were balanced for each group in the experiment. Using Graphic State software (Coulbourn Instruments Inc.,) recorded the number of escape failures and the latency to escape.

T1 sequence (P48039 whole entry): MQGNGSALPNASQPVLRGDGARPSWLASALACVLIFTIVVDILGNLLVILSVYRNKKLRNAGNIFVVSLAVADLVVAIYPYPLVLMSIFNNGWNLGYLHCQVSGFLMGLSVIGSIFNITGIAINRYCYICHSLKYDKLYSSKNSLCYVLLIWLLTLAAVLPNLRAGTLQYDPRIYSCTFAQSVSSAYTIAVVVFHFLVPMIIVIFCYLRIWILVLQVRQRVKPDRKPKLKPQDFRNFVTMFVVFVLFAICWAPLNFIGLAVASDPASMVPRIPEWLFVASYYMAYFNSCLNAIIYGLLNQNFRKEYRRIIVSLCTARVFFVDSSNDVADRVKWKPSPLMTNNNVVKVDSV

character of effect on MT1 receptor ([1]; [35S]‐GTPγS binding): full agonist | Emax ([1]; [35S]‐GTPγS binding, read-out: maximal increase over basal binding (% Emax), MT1 receptor): 104 ± 7.34% | EC50 ([1]; read-out: EC50 of stimulation of specific [35S]‐GTPγS binding, MT1 receptor): 2.49 nM | Ki [2]: 0.12 ± 0.06 nM | Ki [3]: 54 ± 7.31 nM
SMILES: [2H]C([2H])([2H])Oc1cc2c(CCNC(C)=O)cccc2cc1Cl [GW117]
immobility time in TST ([4]; acute, p.o., 20 and 40 mg/kg, vs. vehicle): markedly reduced the immobility time | minimal effective dose in TST ([4]; immobility time): 20 mg/kg | number of failures to escape ([5]; 40 mg/kg): significantly decreased the number of failures to escape | escape latency ([5]; 20 and 40 mg/kg): decreased the escape latency
